Experimental data taken from US11903990B2, “Compositions and methods for treating and removing seborrheic keratoses” (priority 2017, dated 2024).

System: seborrheic keratoses (SKs)
Experiment: Formulary and performance observations on ingredients added to the SK treatment compositions
Assay type: in vivo, human
Conditions: for performance on addition to the BWE composition: added antioxidant, with BWE; for improvement of the treatment of seborrheic keratosis: dietary antioxidant
Excerpt: A number of formulary and performance observations were made in the various aforementioned pilot and case studies as well as additional variants thereof not reported here. […] Additionally, the addition of keratolytic agents and emollients appeared to help keep the composition from drying and improved the penetration of the composition into the SK.

Row | Structure (SMILES) | performance on addition to the BWE composition | improvement of the treatment of seborrheic keratosis
1 | CC(=O)N[C@@H](CS)C(=O)O [N-acetyl cysteine] | no visible improvement | not found to improve
2 | O=C(O)/C=C/c1ccc(O)c(O)c1 [caffeic acid] | no visible improvement | not found to improve
3 | CC(C)=CCC/C(C)=C/C=C/C(C)=C/C=C/C(C)=C/C=C/C=C(C)/C=C/C=C(C)/C=C/C=C(\C)CCC=C(C)C [lycopene] | no visible improvement | not found to improve
4 | Oc1ccc(C=Cc2cc(O)cc(O)c2)cc1 [resveratrol] | no visible improvement | not found to improve
